Results: PMC10709440, “High-throughput ligand profile characterization in novel cell lines expressing seven heterologous insect olfactory receptors for the detection of volatile plant biomarkers” (Scientific Reports, 2023)
Like-named read-outs stand apart in the source and are kept apart here.

Experiments:
Drosophila OR10a = molecular target: T1, Drosophila OR10a (Drosophila melanogaster, UniProt Q9VYZ1); test: Calcium ion fluorescence (GCaMP6) assay, OR10a stable HEK293 cell line; format: cell-based; conditions: for activation at 1 µM: HEK293, 1 μM VOC; for activation at 1 µM / activation at 10 µM / activation at 100 µM / OR10a Average response (VUAA1-normalized): 50 μM VUAA1 = 1, responses not exceeding 0.05 considered 0; for activation at 1 µM / activation at 10 µM / activation at 100 µM: read-out: OR10a Average response (VUAA1-normalized); for activation at 10 µM: HEK293, 10 μM VOC; for activation at 100 µM: HEK293, 100 μM VOC
T1 construct: expressed in transfected cells
T1 sequence (Q9VYZ1 1-406): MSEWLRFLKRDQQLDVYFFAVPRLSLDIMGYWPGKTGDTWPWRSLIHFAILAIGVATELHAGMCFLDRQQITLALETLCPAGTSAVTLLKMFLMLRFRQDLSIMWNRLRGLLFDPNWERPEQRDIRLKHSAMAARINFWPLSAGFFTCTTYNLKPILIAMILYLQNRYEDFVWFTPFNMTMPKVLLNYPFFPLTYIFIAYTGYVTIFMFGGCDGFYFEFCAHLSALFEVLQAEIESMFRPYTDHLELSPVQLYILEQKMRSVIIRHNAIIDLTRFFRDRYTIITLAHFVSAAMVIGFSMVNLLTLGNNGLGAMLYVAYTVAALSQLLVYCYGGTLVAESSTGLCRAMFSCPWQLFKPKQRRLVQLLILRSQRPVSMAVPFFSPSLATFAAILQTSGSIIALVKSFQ
T1 sequence (Q9VNB5 1-486 partner): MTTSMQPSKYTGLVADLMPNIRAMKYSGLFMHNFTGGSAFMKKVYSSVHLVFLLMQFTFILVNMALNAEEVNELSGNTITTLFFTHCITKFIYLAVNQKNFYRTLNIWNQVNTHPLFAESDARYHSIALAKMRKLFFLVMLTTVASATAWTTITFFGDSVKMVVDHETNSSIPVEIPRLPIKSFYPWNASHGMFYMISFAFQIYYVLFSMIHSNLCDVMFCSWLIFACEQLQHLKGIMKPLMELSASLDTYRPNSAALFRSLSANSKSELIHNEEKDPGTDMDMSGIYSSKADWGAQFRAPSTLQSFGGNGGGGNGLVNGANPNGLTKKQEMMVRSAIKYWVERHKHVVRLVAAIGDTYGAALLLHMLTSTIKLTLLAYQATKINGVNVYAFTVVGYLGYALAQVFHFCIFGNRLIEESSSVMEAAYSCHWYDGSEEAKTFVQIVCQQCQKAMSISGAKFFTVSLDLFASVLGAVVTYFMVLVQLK
Outline: (§1)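 Responses are VUAA1-normalized ΔF: each VOC-evoked calcium signal, (FMAX−F0)/F0 over 30 s after injection, divided by the same line's mean 50 µM VUAA1 response. Cells were doxycycline-induced HEK293 with GCaMP6 and the cognate Drosophila OR, in HEPES buffer pH 7.3; ligands tested 0.01–100 μM.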

Drosophila OR85b = molecular target: T2, Drosophila OR85b (Drosophila melanogaster, UniProt Q9VHQ7); test: Calcium ion fluorescence (GCaMP6) assay, OR85b stable HEK293 cell line; format: cell-based; conditions: for Average response: VUAA1-normalized response, mean of biological replicates
T2 construct: expressed in transfected cells
T2 sequence (Q9VHQ7 1-390): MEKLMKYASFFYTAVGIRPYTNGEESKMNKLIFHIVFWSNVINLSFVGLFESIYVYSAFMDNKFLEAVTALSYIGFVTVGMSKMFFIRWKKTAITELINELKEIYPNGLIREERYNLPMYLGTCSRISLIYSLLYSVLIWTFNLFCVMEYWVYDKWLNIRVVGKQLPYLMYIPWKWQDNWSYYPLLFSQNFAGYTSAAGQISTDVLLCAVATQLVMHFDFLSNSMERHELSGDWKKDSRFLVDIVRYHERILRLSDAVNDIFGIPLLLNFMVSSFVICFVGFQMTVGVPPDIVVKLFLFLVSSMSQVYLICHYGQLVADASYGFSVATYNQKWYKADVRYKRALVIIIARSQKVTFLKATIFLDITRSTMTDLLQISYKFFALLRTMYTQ
T2 sequence (Q9VNB5 1-486 partner): T1 sequence (Q9VNB5 1-486 partner)
Outline: as §1

[1] = 100 µM, OR10a clone G5, single plate 2019.12.05
[2] = ligand concentration 10 (unit not given), 0.05 threshold, values below shown as 0
[3] = ligand concentration 100 (unit not given), 0.05 threshold, values below shown as 0
[4] = ligand concentration 1 (unit not given), 0.05 threshold, values below shown as 0
[5] = HEK293, read-out: OR85b Average response (VUAA1-normalized)
[6] = concentration 1, normalized fluorescence change, values below 0.05 threshold given as 0
[7] = concentration 10, normalized fluorescence change, values below 0.05 threshold given as 0
[8] = concentration 100, normalized fluorescence change, values below 0.05 threshold given as 0

Row | Molecule | activation at 1 µM (Drosophila OR10a) [%] | activation at 10 µM (Drosophila OR10a) [%] | activation at 100 µM (Drosophila OR10a) [%] | DF norm AVERAGE OR10a (Drosophila OR10a; [2]) | DF norm AVERAGE OR10a (Drosophila OR10a; [3]) | Average response (Drosophila OR85b; OR85b cell line, cc. 1 µM) | Average response (Drosophila OR85b; OR85b cell line, cc. 10 µM) | Average response (Drosophila OR85b; OR85b cell line, cc. 100 µM) | DF norm AVERAGE OR85b (Drosophila OR85b; [4]) | DF norm AVERAGE OR85b (Drosophila OR85b; [2]) | DF norm AVERAGE OR85b (Drosophila OR85b; [3]) | DF norm AVERAGE OR10a (Drosophila OR10a) | OR10a Average response (VUAA1-normalized) (Drosophila OR10a; 1 μM VOC) | OR10a Average response (VUAA1-normalized) (Drosophila OR10a; 10 μM VOC) | OR10a Average response (VUAA1-normalized) (Drosophila OR10a; 100 μM VOC) | OR10a response (VUAA1-normalized response) (Drosophila OR10a; VOC concentration 1 μM) | OR10a response (VUAA1-normalized response) (Drosophila OR10a; VOC concentration 10 μM) | OR10a response (VUAA1-normalized response) (Drosophila OR10a; VOC concentration 100 μM) | OR85b response (VUAA1-normalized response) (Drosophila OR85b; VOC concentration 1 μM) | OR85b response (VUAA1-normalized response) (Drosophila OR85b; VOC concentration 10 μM) | also measured
1 | CC/C=C\CCOC(C)=O [z3-hexenyl acetate] | 14 | 0 | 0 | 0 | 0 | 0.15 | 0.00 | 0.00 | 0.1453 | 0 | 0 |  |  |  |  |  |  |  |  |  | DF norm, all technical replicates (Drosophila OR10a; [1]): 0; DF norm, outlier technical replicates removed (Drosophila OR10a; [1]): 0; DF, outlier technical replicates removed (Drosophila OR10a; [1]): 0; DF, all technical replicates (Drosophila OR10a; 100 µM, OR10a clone G5, single plate 2019.12.05, xc+0.1%DMSO): 0; DF norm AVERAGE OR10a (Drosophila OR10a; ligand concentration 1 (unit not given), […]): 0.1361
2 | CC1=CCC23CC1C(C)(C)C2CCC3C (stereo not drawn) [α-funebrene] | 0 | 0 | 2.42 | 0 | 0 | 0.10 | 0.00 | 0.26 | 0.09747 | 0 | 0.2621 |  |  |  |  |  |  |  |  |  | OR10a response (VUAA1-normalized) at 1 μM (Drosophila OR10a; OR10a cell line, VOC concentration 1 μM): 0.00; OR10a response (VUAA1-normalized) at 10 μM (Drosophila OR10a; OR10a cell line, VOC concentration 10 μM): 0.00; OR10a response (VUAA1-normalized) at 100 μM (Drosophila OR10a; OR10a cell line, VOC concentration 100 μM): 0.00; DF norm AVERAGE OR10a (Drosophila OR10a; [4]): 0; activation at 1 µM (Drosophila OR85b; [5]): 10%; activation at 10 µM (Drosophila OR85b; [5]): 0%; activation at 100 µM (Drosophila OR85b; [5]): 26%; OR85b response (VUAA1-normalized) at 1 μM (Drosophila OR85b; OR85b cell line, VOC concentration 1 μM): 0.10; OR85b response (VUAA1-normalized) at 10 μM (Drosophila OR85b; OR85b cell line, VOC concentration 10 μM): 0.00; OR85b response (VUAA1-normalized) at 100 μM (Drosophila OR85b; OR85b cell line, VOC concentration 100 μM): 0.26
3 | (+)-beta-cedrene |  |  |  |  |  | 0.00 | 0.0468 | 0.0135 |  |  |  | 0 | 0.0218 | 0.0187 | 0.00 | 0.00 | 0.00 | 0.00 | 0.00 | 0.00 | OR85b response (VUAA1-normalized response) (Drosophila OR85b; VOC concentration 100 μM): 0.00; DF norm AVERAGE OR85b (Drosophila OR85b; [6]): 0; DF norm AVERAGE OR85b (Drosophila OR85b; [7]): 0; DF norm AVERAGE OR85b (Drosophila OR85b; [8]): 0
4 | (-)-alpha-cedrene |  |  |  |  |  | 0.00 | 0.0466 | 0.0948 |  |  |  | 0 | 0.02 | 0.06 | 0.00 | 0.00 | 0.06 | 0.00 | 0.00 | 0.00 | DF norm AVERAGE OR10a (Drosophila OR10a; [7]): 0.05923; OR85b response (VUAA1-normalized response) (Drosophila OR85b; VOC concentration 100 μM): 0.0948; DF norm AVERAGE OR85b (Drosophila OR85b; [6]): 0; DF norm AVERAGE OR85b (Drosophila OR85b; [7]): 0; DF norm AVERAGE OR85b (Drosophila OR85b; [8]): 0.09481
